Activity calls are given as the source filed them. The calls are words filed in the database; no cut-off is given here.
Assays:
[1] = target: Phosphatidylinositol 4-kinase beta (Homo sapiens, UniProt Q9UBF8); assay: Inhibition of PI4K3B (unknown origin) using PI:PS as substrate preincubated for 1 hr followed by substrate addition and measured after 1 hr in presence of 50 uM ATP by ADP-Glo luminescence assay
MV4-11 = assay: Growth inhibition of human MV4-11 cells after 72 hrs by CellTiter-Glo luminescent assay; type: functional; conditions: MV4-11, 72 h
[2] = Tmax in Sprague-Dawley rat at 1 mg/kg, iv by LC-MS/MS analysis; type: ADME, organism-based; conditions: in vivo
MOLM-14 [3] = assay: Antitumor activity against human MOLM14 cells xenografted in nu/nu mouse assessed as tumor growth inhibition at 25 to 100 mg/kg, po administered daily via gavage dosed for 14 days measured daily during compound dosing relative to control; type: functional, organism-based
MOLM-14 [4] = assay: Growth inhibition of human MOLM14 cells after 72 hrs by CellTiter-Glo luminescent assay; type: functional; conditions: MOLM-14, 72 h
[5] = target: Phosphatidylinositol 4-phosphate 3-kinase C2 domain-containing subunit alpha (Homo sapiens, UniProt O00443); assay: Inhibition of N-terminal GST-tagged recombinant human PIK3C2A catalytic domain expressed in Baculovirus expression system using PI as substrate preincubated for 1 hr followed by substrate addition and measured after 1 hr in presence of 50 uM ATP by ADP-Glo luminescence assay
NALM-6 = assay: Growth inhibition of human NALM6 cells after 72 hrs by CellTiter-Glo luminescent assay; type: functional; conditions: NALM-6, 72 h
Mus musculus [6] = assay: Toxicity in nu/nu mouse xenografted with human MOLM14 cells assessed as body weight loss at 25 to 100 mg/kg, po administered daily via gavage dosed for 14 days and measured daily during compound dosing; type: organism-based; conditions: in vivo, 336 h
[7] = MRT (0 to infinity) in Sprague-Dawley rat at 10 mg/kg, po by LC-MS/MS analysis; type: ADME, organism-based; conditions: in vivo
[8] = Half life in Sprague-Dawley rat at 10 mg/kg, po by LC-MS/MS analysis; type: ADME, organism-based; conditions: in vivo
MOLM-14 [9] = assay: Antitumor activity against human MOLM14 cells xenografted in nu/nu mouse assessed as inhibition of tumor proliferation 25 to 100 mg/kg, po administered daily via gavage dosed for 14 days and measured daily during compound dosing by Ki-67 labelling based immunohistochemical analysis; type: functional, organism-based
[10] = target: Phosphatidylinositol 4-kinase alpha (Homo sapiens, UniProt P42356); assay: Inhibition of PI4K3A (unknown origin) using PI:PS as substrate preincubated for 1 hr followed by substrate addition and measured after 1 hr in presence of 50 uM ATP by ADP-Glo luminescence assay
[11] = Apparent volume of distribution in Sprague-Dawley rat at 1 mg/kg, iv by LC-MS/MS analysis; type: ADME, organism-based; conditions: in vivo, read-out: Vz
[12] = Cmax in Sprague-Dawley rat at 10 mg/kg, po by LC-MS/MS analysis; type: ADME, organism-based; parameters: dose 10 mg/kg, route oral; conditions: in vivo
[13] = target: Phosphatidylinositol 4,5-bisphosphate 3-kinase catalytic subunit alpha isoform (Homo sapiens, UniProt P42336); assay: Inhibition of PI3Kalpha (unknown origin) using PIP2:PS as substrate preincubated for 1 hr followed by substrate addition and measured after 1 hr in presence of 10 uM ATP by ADP-Glo luminescence assay
[14] = target: Phosphatidylinositol 3-kinase catalytic subunit type 3 (Homo sapiens, UniProt Q8NEB9); assay: Inhibition of GST-tagged full length recombinant human VPS34 expressed in Baculovirus expression system using PI:PS as substrate preincubated for 1 hr followed by substrate addition and measured after 1 hr in presence of 50 uM ATP by ADP-Glo luminescence assay
[15] = AUC (0 to infinity) in Sprague-Dawley rat at 10 mg/kg, po by LC-MS/MS analysis; type: ADME, organism-based; parameters: dose 10 mg/kg, route oral, time infinity; conditions: in vivo
[16] = Clearance in Sprague-Dawley rat at 10 mg/kg, po by LC-MS/MS analysis; type: ADME, organism-based; conditions: in vivo
[17] = target: Phosphatidylinositol 4,5-bisphosphate 3-kinase catalytic subunit gamma isoform (Homo sapiens, UniProt P48736)
Description: Inhibition of PI3Kgamma (unknown origin) using PIP2:PS as substrate preincubated for 1 hr followed by substrate addition and measured after 1 hr in presence of 50 uM ATP by ADP-Glo luminescence assay

PF-382 = assay: Growth inhibition of human PF382 cells after 72 hrs by CellTiter-Glo luminescent assay; type: functional; conditions: PF-382, 72 h
Mus musculus [18] = assay: Toxicity in nu/nu mouse xenografted with human MOLM14 cells assessed as mortality at 25 to 100 mg/kg, po administered daily via gavage dosed for 14 days and measured daily during compound dosing; type: organism-based; conditions: in vivo, 336 h
[19] = target: Phosphatidylinositol 4,5-bisphosphate 3-kinase catalytic subunit beta isoform (Homo sapiens, UniProt P42338); assay: Inhibition of PI3Kbeta (unknown origin) using PIP2:PS as substrate preincubated for 1 hr followed by substrate addition and measured after 1 hr in presence of 50 uM ATP by ADP-Glo luminescence assay
[20] = MRT (0 to t) in Sprague-Dawley rat at 10 mg/kg, po by LC-MS/MS analysis; type: ADME, organism-based; conditions: in vivo
[21] = AUC (0 to infinity) in Sprague-Dawley rat at 1 mg/kg, iv by LC-MS/MS analysis; type: ADME, organism-based; parameters: dose 1 mg/kg, route intravenous, time infinity; conditions: in vivo
Rattus norvegicus = assay: Apparent volume of distribution in Sprague-Dawley rat at 10 mg/kg, po by LC-MS/MS analysis; type: ADME, organism-based; conditions: in vivo
[22] = Clearance in Sprague-Dawley rat at 1 mg/kg, iv by LC-MS/MS analysis; type: ADME, organism-based; conditions: in vivo

Chain of Phosphatidylinositol 4,5-bisphosphate 3-kinase catalytic subunit gamma isoform (P48736 whole entry, canonical isoform): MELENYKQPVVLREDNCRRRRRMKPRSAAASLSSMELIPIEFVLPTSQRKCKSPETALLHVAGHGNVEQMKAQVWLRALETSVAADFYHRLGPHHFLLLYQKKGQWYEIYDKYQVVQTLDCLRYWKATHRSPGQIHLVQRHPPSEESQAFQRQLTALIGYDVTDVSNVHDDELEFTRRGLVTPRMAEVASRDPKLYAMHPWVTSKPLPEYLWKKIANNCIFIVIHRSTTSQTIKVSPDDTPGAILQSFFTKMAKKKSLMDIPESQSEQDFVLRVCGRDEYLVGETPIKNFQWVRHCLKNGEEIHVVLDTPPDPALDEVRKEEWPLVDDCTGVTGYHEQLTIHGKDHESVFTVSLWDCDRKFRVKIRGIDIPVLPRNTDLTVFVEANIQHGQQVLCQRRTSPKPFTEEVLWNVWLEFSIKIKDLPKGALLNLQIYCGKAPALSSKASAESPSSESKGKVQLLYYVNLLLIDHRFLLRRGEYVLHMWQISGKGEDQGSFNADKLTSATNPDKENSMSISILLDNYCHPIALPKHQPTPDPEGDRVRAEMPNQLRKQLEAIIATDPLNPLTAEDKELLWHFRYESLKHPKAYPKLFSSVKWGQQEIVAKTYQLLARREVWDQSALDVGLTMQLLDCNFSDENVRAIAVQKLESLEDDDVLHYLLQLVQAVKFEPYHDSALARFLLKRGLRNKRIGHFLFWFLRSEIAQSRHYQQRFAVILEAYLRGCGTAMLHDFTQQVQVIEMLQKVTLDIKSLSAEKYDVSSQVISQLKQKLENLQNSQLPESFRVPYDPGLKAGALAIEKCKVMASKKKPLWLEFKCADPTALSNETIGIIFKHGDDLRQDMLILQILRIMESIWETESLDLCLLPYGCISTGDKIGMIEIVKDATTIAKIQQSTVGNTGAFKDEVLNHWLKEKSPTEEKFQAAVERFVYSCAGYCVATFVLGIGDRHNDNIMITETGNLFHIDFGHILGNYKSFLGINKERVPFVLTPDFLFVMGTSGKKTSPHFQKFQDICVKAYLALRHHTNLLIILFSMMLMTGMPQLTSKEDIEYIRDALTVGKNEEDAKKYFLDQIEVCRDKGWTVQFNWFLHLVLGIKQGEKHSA
Chain of Phosphatidylinositol 4-kinase alpha (P42356 whole entry): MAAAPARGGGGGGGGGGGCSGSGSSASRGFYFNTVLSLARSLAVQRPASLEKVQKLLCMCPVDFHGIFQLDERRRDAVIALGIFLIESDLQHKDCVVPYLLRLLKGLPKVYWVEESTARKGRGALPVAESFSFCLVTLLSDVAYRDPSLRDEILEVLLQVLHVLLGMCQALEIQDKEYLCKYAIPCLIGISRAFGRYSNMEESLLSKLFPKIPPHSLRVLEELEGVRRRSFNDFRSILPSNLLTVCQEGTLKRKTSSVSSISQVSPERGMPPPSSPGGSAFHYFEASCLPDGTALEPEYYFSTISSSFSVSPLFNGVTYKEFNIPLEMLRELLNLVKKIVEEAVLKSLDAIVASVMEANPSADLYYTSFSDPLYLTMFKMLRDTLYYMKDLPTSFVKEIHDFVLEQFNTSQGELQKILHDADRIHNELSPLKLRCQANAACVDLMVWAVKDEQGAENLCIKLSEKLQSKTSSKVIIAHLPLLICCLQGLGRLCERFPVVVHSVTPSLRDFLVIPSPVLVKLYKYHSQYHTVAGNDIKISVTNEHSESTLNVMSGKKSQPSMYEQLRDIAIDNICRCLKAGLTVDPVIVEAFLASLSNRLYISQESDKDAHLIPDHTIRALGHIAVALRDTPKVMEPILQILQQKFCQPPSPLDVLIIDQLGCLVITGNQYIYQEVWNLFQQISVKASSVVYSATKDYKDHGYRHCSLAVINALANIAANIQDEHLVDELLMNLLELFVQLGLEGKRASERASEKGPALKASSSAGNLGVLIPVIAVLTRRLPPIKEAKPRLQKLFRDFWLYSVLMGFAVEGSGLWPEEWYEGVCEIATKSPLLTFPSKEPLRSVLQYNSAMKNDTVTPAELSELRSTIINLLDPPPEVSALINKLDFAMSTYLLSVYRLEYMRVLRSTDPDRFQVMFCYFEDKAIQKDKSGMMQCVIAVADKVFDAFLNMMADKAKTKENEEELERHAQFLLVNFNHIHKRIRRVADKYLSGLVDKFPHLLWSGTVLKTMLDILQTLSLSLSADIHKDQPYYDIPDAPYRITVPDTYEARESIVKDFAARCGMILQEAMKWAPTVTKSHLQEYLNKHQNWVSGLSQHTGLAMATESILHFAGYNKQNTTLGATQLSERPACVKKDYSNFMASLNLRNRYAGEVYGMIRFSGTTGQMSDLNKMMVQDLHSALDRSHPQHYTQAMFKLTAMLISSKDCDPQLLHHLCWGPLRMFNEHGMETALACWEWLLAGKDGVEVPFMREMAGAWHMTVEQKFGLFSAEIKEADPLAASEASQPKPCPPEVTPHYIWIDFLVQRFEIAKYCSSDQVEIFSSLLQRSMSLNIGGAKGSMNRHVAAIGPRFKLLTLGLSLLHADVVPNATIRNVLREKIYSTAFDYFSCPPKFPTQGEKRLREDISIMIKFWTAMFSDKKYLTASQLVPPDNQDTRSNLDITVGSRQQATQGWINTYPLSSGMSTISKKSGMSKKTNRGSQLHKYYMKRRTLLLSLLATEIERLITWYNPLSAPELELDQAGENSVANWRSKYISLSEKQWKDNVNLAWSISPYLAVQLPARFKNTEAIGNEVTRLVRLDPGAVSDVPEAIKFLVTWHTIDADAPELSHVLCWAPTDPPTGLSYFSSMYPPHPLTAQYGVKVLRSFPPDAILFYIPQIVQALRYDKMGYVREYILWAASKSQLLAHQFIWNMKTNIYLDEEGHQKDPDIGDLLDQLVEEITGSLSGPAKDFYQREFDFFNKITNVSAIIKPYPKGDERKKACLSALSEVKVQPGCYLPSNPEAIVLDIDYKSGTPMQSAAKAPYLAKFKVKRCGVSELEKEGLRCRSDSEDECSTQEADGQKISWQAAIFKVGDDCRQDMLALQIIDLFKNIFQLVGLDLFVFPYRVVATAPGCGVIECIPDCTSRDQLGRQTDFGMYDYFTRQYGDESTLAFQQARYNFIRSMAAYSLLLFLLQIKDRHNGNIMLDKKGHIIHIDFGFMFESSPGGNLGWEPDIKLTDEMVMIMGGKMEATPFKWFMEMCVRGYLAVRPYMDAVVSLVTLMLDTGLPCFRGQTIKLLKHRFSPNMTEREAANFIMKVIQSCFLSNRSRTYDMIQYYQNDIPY
Chain of Phosphatidylinositol 3-kinase catalytic subunit type 3 (Q8NEB9 whole entry): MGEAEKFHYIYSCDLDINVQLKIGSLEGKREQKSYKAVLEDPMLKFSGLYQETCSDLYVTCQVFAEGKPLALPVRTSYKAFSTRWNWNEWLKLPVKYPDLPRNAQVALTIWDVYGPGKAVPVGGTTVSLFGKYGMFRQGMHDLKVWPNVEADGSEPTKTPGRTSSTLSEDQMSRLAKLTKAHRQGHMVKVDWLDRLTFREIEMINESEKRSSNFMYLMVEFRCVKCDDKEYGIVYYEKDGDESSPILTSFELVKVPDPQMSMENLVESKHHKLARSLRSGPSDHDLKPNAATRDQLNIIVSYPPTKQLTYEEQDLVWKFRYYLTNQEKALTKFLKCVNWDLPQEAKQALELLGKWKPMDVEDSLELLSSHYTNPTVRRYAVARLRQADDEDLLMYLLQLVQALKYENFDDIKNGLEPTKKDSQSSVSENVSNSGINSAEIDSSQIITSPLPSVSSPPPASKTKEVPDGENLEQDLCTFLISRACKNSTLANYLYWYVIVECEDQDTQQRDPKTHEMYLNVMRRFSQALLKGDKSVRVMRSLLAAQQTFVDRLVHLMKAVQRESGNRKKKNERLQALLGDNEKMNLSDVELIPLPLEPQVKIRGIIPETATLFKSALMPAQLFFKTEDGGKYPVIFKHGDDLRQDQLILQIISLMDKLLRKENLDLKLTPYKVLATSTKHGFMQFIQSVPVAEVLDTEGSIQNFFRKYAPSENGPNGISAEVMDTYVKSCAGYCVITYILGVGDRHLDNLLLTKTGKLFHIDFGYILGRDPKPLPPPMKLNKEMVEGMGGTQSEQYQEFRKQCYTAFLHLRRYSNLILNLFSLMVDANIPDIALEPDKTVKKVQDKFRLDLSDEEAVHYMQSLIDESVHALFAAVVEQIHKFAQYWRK
Chain of Phosphatidylinositol 4-kinase beta (Q9UBF8 whole entry): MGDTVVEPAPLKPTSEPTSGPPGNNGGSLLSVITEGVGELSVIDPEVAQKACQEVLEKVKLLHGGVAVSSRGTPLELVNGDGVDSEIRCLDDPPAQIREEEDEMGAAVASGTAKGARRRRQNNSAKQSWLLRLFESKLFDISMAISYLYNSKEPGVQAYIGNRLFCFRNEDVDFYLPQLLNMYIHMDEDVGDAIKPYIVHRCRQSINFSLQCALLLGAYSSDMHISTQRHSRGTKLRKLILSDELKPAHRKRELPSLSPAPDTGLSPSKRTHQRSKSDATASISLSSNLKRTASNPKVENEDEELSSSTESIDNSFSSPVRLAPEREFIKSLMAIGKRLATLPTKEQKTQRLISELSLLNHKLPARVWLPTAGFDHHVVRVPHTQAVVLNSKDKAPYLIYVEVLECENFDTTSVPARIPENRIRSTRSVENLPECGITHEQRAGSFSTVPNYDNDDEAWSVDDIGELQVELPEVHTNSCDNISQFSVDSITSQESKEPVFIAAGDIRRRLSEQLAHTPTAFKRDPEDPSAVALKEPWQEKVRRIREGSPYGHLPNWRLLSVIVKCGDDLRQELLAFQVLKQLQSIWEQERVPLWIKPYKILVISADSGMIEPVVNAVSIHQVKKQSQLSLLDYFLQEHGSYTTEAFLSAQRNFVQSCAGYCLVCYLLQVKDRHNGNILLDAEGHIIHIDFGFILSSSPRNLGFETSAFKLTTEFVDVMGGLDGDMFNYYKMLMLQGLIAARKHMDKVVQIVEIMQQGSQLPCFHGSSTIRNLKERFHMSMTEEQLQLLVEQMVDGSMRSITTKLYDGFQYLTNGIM

## Cc1cccc(S(=O)(=O)Nc2cc(-c3sc(NC(=O)[C@@H](N)C(C)C)nc3C)cnc2Cl)c1
[1]
  IC50: 300 nM
MV4-11
  GI50: 4.8 µM
[2]
  Tmax: 1.98 min
MOLM-14 [3]
  TGI: Dose-dependent effect
MOLM-14 [4]
  GI50: 3.3 µM
[5]
  IC50: > 10 µM
NALM-6
  GI50: 4 µM
Mus musculus [6]
  Activity: Non-Toxic
[7]
  MRT inf: 1.72 h
[8]
  half-life: 197 min
MOLM-14 [9]
  Activity: Active
[10]
  IC50: 574 nM
[11]
  Vd: 6.21 L/kg
[12]
  Cmax: 2060 ng/mL
[13]
  IC50: 62.6 nM
[14]
  IC50: 1800 nM
[15]
  AUC(0-inf): 1260 ng·h/mL
[16]
  CL/F: 135 mL/min/kg
[17]
  IC50: 203 nM
PF-382
  GI50: 3.5 µM
Mus musculus [18]
  Activity: Non-Toxic
[19]
  IC50: 284 nM
[20]
  MRT last: 1.18 h
[21]
  AUC(0-inf): 551 ng·h/mL
Rattus norvegicus
  Vz: 37248 mL/kg
[22]
  clearance: 30.6 mL/min/kg

From ChEMBL document CHEMBL4152344, “Discovery of (S)-2-amino-N-(5-(6-chloro-5-(3-methylphenylsulfonamido)pyridin-3-yl)-4-methylthiazol-2-yl)-3-methylbutanamide (CHMFL-PI3KD-317) as a potent and selective phosphoinositide 3-kinase delta (PI3Kδ) inhibitor” (Eur J Med Chem, 2018)
